In ChEMBL document CHEMBL2021873, “Blocking HIV-1 entry by a gp120 surface binding inhibitor” (Bioorg Med Chem Lett, 2012):
The source made the active and inactive calls. The rule behind the calls is not given here.

Legend:
[1] = system: Human immunodeficiency virus 1; assay: Antiviral activity against Human immunodeficiency virus 1 Clade C Du151.2 infected in human TZM-bl cells after 2 days by luciferase reporter gene analysis; assay type: functional, organism-based; conditions: Human immunodeficiency virus 1, Clade C Du151.2, TZM-bl, 48 h
[2] = system: Human immunodeficiency virus 1; assay: Antiviral activity against Human immunodeficiency virus 1 Clade B 7165.18 infected in human TZM-bl cells after 2 days by luciferase reporter gene analysis; assay type: functional, organism-based; conditions: Human immunodeficiency virus 1, Clade B 7165.18, TZM-bl, 48 h
[3] = system: Human immunodeficiency virus 1; assay: Competitive inhibition of Human immunodeficiency virus 1 3B gp120 V3 loop assessed as blockade of 447-52D antibody binding by ELISA
[4] = system: Human immunodeficiency virus 1; assay: Antiviral activity against BMS-378806-resistant Human immunodeficiency virus 1 YU-2 T/P; assay type: functional; conditions: Human immunodeficiency virus type 1 (isolate YU2)
[5] = system: Human immunodeficiency virus 1; assay: Competitive inhibition of Human immunodeficiency virus 1 3B gp120 glycan loop assessed as blockade of 2G12 antibody binding by ELISA
[6] = system: Human immunodeficiency virus 1; assay: Antiviral activity against Human immunodeficiency virus 1 Clade C ZM197M.PB7 infected in human TZM-bl cells after 2 days by luciferase reporter gene analysis; assay type: functional, organism-based; conditions: Human immunodeficiency virus 1, Clade C ZM197M.PB7, TZM-bl, 48 h
[7] = system: Human immunodeficiency virus 1; assay: Antiviral activity against Human immunodeficiency virus 1 Clade B RHPA4259.7 infected in human TZM-bl cells after 2 days by luciferase reporter gene analysis; assay type: functional, organism-based; conditions: Human immunodeficiency virus 1, Clade B RHPA4259.7, TZM-bl, 48 h
[8] = system: Human immunodeficiency virus 1; assay: Competitive inhibition of Human immunodeficiency virus 1 3B gp120 V3 loop assessed as blockade of 39F antibody binding by ELISA
[9] = system: Human immunodeficiency virus 1; assay: Antiviral activity against Human immunodeficiency virus 1 Clade B WITO4160.33 infected in human TZM-bl cells after 2 days by luciferase reporter gene analysis; assay type: functional, organism-based; conditions: Human immunodeficiency virus 1, Clade B WITO4160.33, TZM-bl, 48 h
[10] = system: Human immunodeficiency virus 1; assay: Antiviral activity against Human immunodeficiency virus 1 Clade B SS1196.1 infected in human TZM-bl cells after 2 days by luciferase reporter gene analysis; assay type: functional, organism-based; conditions: Human immunodeficiency virus 1, Clade B SS1196.1, TZM-bl, 48 h
[11] = system: Human immunodeficiency virus 1; assay: Competitive inhibition of Human immunodeficiency virus 1 3B gp120 V3 loop assessed as blockade of PK70 antibody binding by ELISA
[12] = system: Human immunodeficiency virus 1; assay: Antiviral activity against Human immunodeficiency virus 1 DH012; assay type: functional, organism-based
[13] = system: Human immunodeficiency virus 1; assay: Antiviral activity against Human immunodeficiency virus 1 Clade B NL4.3 infected in human TZM-bl cells after 2 days by luciferase reporter gene analysis; assay type: functional, organism-based; conditions: Human immunodeficiency virus 1, Clade B NL4.3, TZM-bl, 48 h
[14] = system: Human immunodeficiency virus 1; assay: Antiviral activity against Human immunodeficiency virus 1 Clade C Du123.6 infected in human TZM-bl cells after 2 days by luciferase reporter gene analysis; assay type: functional, organism-based; conditions: Human immunodeficiency virus 1, Clade C Du123.6, TZM-bl, 48 h
[15] = system: Human immunodeficiency virus 1; assay: Antiviral activity against Human immunodeficiency virus 1 Clade B REJO4541.67 infected in human TZM-bl cells after 2 days by luciferase reporter gene analysis; assay type: functional, organism-based; conditions: Human immunodeficiency virus 1, Clade B REJO4541.67, TZM-bl, 48 h
[16] = system: Human immunodeficiency virus 1; assay: Antiviral activity against Human immunodeficiency virus 1 3B infected in human TZM-bl cells assessed as inhibition of viral replication at 1 uM by luminometric analysis; assay type: functional, organism-based; conditions: TDE = time-dependent effect
[17] = system: Human immunodeficiency virus 1; assay: Antiviral activity against Human immunodeficiency virus 1 YU-2; assay type: functional; conditions: isolate YU2
[18] = system: Human immunodeficiency virus 1; assay: Antiviral activity against Human immunodeficiency virus 1 3B infected in human TZM-bl cells assessed as inhibition of viral replication at 0.33 uM by luminometric analysis; assay type: functional, organism-based; conditions: TDE = time-dependent effect
[19] = system: Human immunodeficiency virus 1; assay: Antiviral activity against BMS-378806-resistant Human immunodeficiency virus 1 DH012 T/P; assay type: functional, organism-based
COS = assay: (§1) Inhibition of Human immunodeficiency virus 1 3B gp120 expressed in african green monkey COS cells assessed as inhibition of […] between gp120 and CD4 expressed on human TZM-bl cells by ELISA; assay type: cell-based
[20] = system: Human immunodeficiency virus 1; assay: Antiviral activity against Human immunodeficiency virus 1 Clade C Du422.1 infected in human TZM-bl cells after 2 days by luciferase reporter gene analysis; assay type: functional, organism-based; conditions: Human immunodeficiency virus 1, Clade C Du422.1, TZM-bl, 48 h
[21] = system: Human immunodeficiency virus 1; assay: Antiviral activity against Human immunodeficiency virus 1 Clade B 5768.4 infected in human TZM-bl cells after 2 days by luciferase reporter gene analysis; assay type: functional, organism-based; conditions: Human immunodeficiency virus 1, Clade B 5768.4, TZM-bl, 48 h
[22] = system: Human immunodeficiency virus 1; assay: Antiviral activity against Human immunodeficiency virus 1 Clade C ZM109F.PB4 infected in human TZM-bl cells after 2 days by luciferase reporter gene analysis; assay type: functional, organism-based; conditions: Human immunodeficiency virus 1, Clade C ZM109F.PB4, TZM-bl, 48 h
[23] = as §1; assay type: cell-based

For `CCCCOc1c2cc(C(=O)Nc3cc(C(=O)O)cc(C(=O)O)c3)cc1Cc1cc(C(=O)Nc3cc(C(=O)O)cc(C(=O)O)c3)cc(c1OCCCC)Cc1cc(C(=O)Nc3cc(C(=O)O)cc(C(=O)O)c3)cc(c1OCCCC)Cc1cc(C(=O)Nc3cc(C(=O)O)cc(C(=O)O)c3)cc(c1OCCCC)C2`, the IC50 [1] was 3.1 µM, the IC50 [2] was 4.5 µM and the inhibition [3] was “Dose-dependent effect”. The Activity [4] was “Active”, the inhibition [5] was “inactive” and the IC50 [6] was 2.7 µM. The IC50 [7] was 3.1 µM, the inhibition [8] was “Active” and the IC50 [9] was 1.8 µM. The IC50 [10] was 2.8 µM, the inhibition [11] was “Active” and the Activity [12] was “Active”. For the same molecule, the IC50 [13] was 0.65 µM, the IC50 [14] was 1.4 µM and the IC50 [15] was 1.9 µM. The Activity [16] was “tde”, the Activity [17] was “Active” and the Activity [18] was “tde”. For the same molecule, the Activity [19] was “Active”, the inhibition (COS) was “Dose-dependent effect” and the IC50 [20] was 1.8 µM. For the same molecule, the IC50 [21] was 4.1 µM and the IC50 [22] was 3.9 µM.

For `CCCCOc1c2cc(C(=O)Nc3cc(C(=O)O)cc(C(=O)OCc4ccccc4)c3)cc1Cc1cc(C(=O)Nc3cc(C(=O)O)cc(C(=O)OCc4ccccc4)c3)cc(c1OCCCC)Cc1cc(C(=O)Nc3cc(C(=O)O)cc(C(=O)OCc4ccccc4)c3)cc(c1OCCCC)Cc1cc(C(=O)Nc3cc(C(=O)O)cc(C(=O)OCc4ccccc4)c3)cc(c1OCCCC)C2`, the inhibition [3] was “inactive” and the EC50 [23] was > 70 µM.
